From patent US20210113499A1, “CERAMIDE MIMICS FOR TREATMENT OF ALZHEIMER'S DISEASE” (University of Kentucky Research Foundation, priority 2019, published 2021) come the findings set out here.

The experiment relates to 5×FAD exosomes (Aβ-associated astrosomes). Put plainly: Incubation of serum exosomes with ceramide analogs or anti-ceramide IgG; vesicle size by nanoparticle tracking analysis (ZetaView). Format: biochemical, mouse. The settings on record: for Vesicle size reduced: 5×FAD serum exosomes incubated at 37° C. for 16 h with 50 μM ceramide analog, NTA. As to the method:
Sera were isolated from freshly obtained mouse blood. Blood was drawn through heart puncture and was allowed to clot at room temperature for 30 min. Blood was then centrifuged at 1,800×g for 10 min at 4° C. The clear upper layer was transferred to a fresh tube and centrifuged at 3,000×g for 15 min to pellet residual blood cells. Exosomes were extracted using ExoQuick exosome solution (EXOQ; System Biosciences, Inc., Mountain View, Calif., USA) according to the manufacturer protocol. Briefly, one-fourth milliliter aliquots of serum was treated with 67 μl of ExoQuick exosome solution, followed by incubation for 60 min at 4° C. to precipitate total exosomes. Tubes were then centrifuged at 1,500×g for 30 min. Each exosome pellet was resuspended in 100 μl of PBS with 1× Halt™ Protease Inhibitor Cocktail (Thermo Fisher, Massachusetts, USA). In certain experiments exosomes were labeled with PKH67 Green Fluorescent Dye. The exosomes were labeled with PKH67 Green Fluorescent Cell Linker Kit for General Cell Membrane Labelling (Sigma-Aldrich) according to the manufacturer's protocol. Briefly, ExoQuick pellets were resuspended in PBS, 1 ml of Diluent C (CGLDIL, Sigma-Aldrich) was then added to each sample. As a control, 1 ml of Diluent C after adding the same volume of PBS was used. Next, 4 μl of PKH67 dye was added to 1 ml of Diluent C then mixed with the exosomes and the control, PKH67/Diluent C mixture was ultra-centrifuged before being added to samples. The samples were allowed to incubate <5 min on a rotor plate. One ml of 1% BSA was then added to bind excess dye. Samples were ultra-centrifuged at 110,000×g for 70 min, washed and centrifuged again. For exosomes quantification, nanoparticle tracking analysis (NTA) with the ZetaView PMX110 (Particle Metrix) was used. Briefly, exosomes were resuspended in PBS. Two ml of appropriately diluted samples were injected into the ZetaView cell. The instrument was set to obtain NTA measurements at 11 positions, two cycles at each position. […]

Regarding `CCCCCCCCCCCCCCCC(=O)N(CCO)CCO` [B16, N-palmitoyl bisethanolamine], the Vesicle size reduced entry is “not”. `CCCCCCCC/C=C\CCCCCCCC(=O)NC(CO)CO` [S18, N-oleoyl serinol] returned a Vesicle size reduced of 17%. Besides, the “Aggregates formed by 5×FAD serum astrosomes associated with Aβ (size distribution, FIG. 2D)” value (5×FAD exosomes treated with ceramide analog, particle diameter by NTA) was “reduced”.
